Measurements taken from patent publication US7947280B2 (priority 2003, dated 2011).
Entries after “also recorded” stand apart in the source; their conditions may differ.

Columns and labels:
[1] = tested on: C57B/16 mice; experiment: Magnetic resonance imaging after intraperitoneal apelin-12 injection; type: in vivo, mouse; conditions: post apelin-12 300 μg/kg intraperitoneal, one hour prior to scanning; n=9
Procedure: Magnetic resonance imaging. […] Platinum needle ECG leads were inserted subcutaneously. Respiration was monitored by means of a pneumatic pillow sensor positioned against the abdomen. Mouse body temperature was maintained during scanning at 37° C. by a flow of heated air thermostatically controlled by a rectal temperature probe. Magnetic resonance images were acquired on a 4.7T Oxford magnet controlled by a Varian Inova console (Varian, Palo Alto, Calif.) using a transmit-receive, quadrature, volume coil with an inner diameter of 3.5 cm. Image acquisition was gated to respiration and to the ECG R wave (SA Instruments, Stony Brook, N.Y.). Coronal and sagittal scout images led to the acquisition of multiple contiguous 1 mm thick, short axis slices orthogonal to the interventricular septum. […] Planimetry measurements of end diastolic and end systolic dimension were derived offline from short axis views of the left ventricle at the level of the papillary muscles using ImageJ software (National Institutes of Health, Bethesda, Md.). Ejection fraction was calculated as [[…]. Data Analysis. […] Exact p values are reported for all comparisons.

[2] = tested on: mice given angiotensin II and isoproterenol infusions; experiment: Neurohormonal cardiomyopathy model, echocardiography; type: in vivo, mouse; conditions: wild type mice
Procedure: Echocardiography. Two dimensional and M mode echocardiography was carried out using thea GE Vivid ultrasound platform with the small animal probe (13 MHz). […] After shaving of the anterior chest, mice were warmed using a heat lamp. Short axis views of the left ventricle were captured at the level of the papillary muscles in 2D and M modes. Analysis was carried out offline and fractional shortening calculated as [LVEDD−LVESD]/LVEDD where LVEDD is left ventricular end diastolic diameter (measured at the tip of the mitral valve leaflets) and LVESD is left ventricular end systolic diameter.
Neurohormonal cardiomyopathy model. […] All mice were age 12-14 weeks.

[3] = tested on: ApoE-KO mice; experiment: Atherosclerotic lesion analysis in ApoE-KO mice; type: in vivo, mouse; conditions: for reduction of total lesion burden: co-infusion of Apelin 2 mg/kg/day with AngII 1.4 mg/kg/day
Procedure: Animals. Mice were maintained in temperature-controlled (20° C. to 22° C.) environment with a 12-hour light-dark cycle. […] All mice were C57BL/6J ApoE-KO male mice (Jackson Laboratories, Bar Harbor, […].) between the ages of 8-12 weeks. […] Animal procedures were carried out in accordance with the Institutional Review Board Guidelines at Stanford University.
Tissue preparation, histology and lesion quantification. Mice were euthanized 28 days following implantation of osmotic mini-pumps. The thoracic cage was removed and the animal perfused with phosphate buffered saline solution (PBS) for 2 minutes. The entire aorta and vein graft were exposed and the periadventitial tissue and scar tissue dissected and removed. Subsequently mice were perfusion fixed in situ with 4% phosphate-buffered paraformaldehyde. In some animals aorta and lung were removed fresh for biochemical assays.
Atherosclerotic Lesion Analysis Atherosclerosis lesion area was determined as described previously. Briefly, the arterial tree was perfused with PBS (pH 7.3) and then perfusion fixed with phosphate-buffered paraformaldehyde (3%, pH 7.3). The heart and full length of the aorta-to-iliac bifurcation was exposed and dissected carefully from any surrounding tissues. Aortas were then opened along the ventral midline and dissected free of the animal and pinned out flat, intimal side up, onto black wax. Aortic images were captured with a digital camera (DMC1) mounted on a Leica MZ6 stereomicroscope and analyzed using Fovea Pro (Reindeer Graphics, Asheville, N.C.). Percent lesion area was calculated as total lesion area divided by total surface area.

[4] = tested on: ApoE-KO mice; experiment: AngII induced abdominal aortic aneurysm formation model; type: in vivo, mouse
Procedure: Animals. Mice were maintained in temperature-controlled (20° C. to 22° C.) environment with a 12-hour light-dark cycle. Sterile water and standard chow diet were available ad libitum. All mice were C57BL/6J ApoE-KO male mice (Jackson Laboratories, Bar Harbor, […].) between the ages of 8-12 weeks. […] Animal procedures were carried out in accordance with the Institutional Review Board Guidelines at Stanford University.
Abdominal aortic aneurysm formation, sudden death and vein graft procedure. […] Abdominal aortic aneurysm was defined as ≧50% enlargement of the maximal abdominal aorta diameter. Mice that were found dead without any preceding signs of suffering were defined as sudden death.

[5] = tested on: superoxide production in aortic tissue of apoE knockout mice; experiment: Lucigenin-enhanced chemiluminescence of aortic superoxide; type: in vivo, mouse; conditions: addition of apelin to AngII
Procedure: Lucigenin-enhanced chemiluminescence. Total aortic superoxide was measured by lucigenin-enhanced chemiluminescence as described previously. Aortas were harvested flushed with Krebs-HEPES buffer, opened longitudinally and divided into halves. Vessels were gassed with 95% oxygen/5% carbon dioxide in warmed Krebs-HEPES buffer for 30 minutes before measurements of chemiluminescence in a luminometer (manufacturer, location) using 20 μmol/L lucigenin. One half of each vessel was incubated in L-NAME (1 mmol/L). After measuring baseline readings for 4 minutes, samples were equilibrated and dark adapted for 5 mins, and chemiluminescence was recorded for 10 minutes. Recordings were performed blinded to the samples identity. Results were expressed as counts per second per milligram of tissue dry weight.

[6] = tested on: superoxide production in aortic sections; experiment: Dihydroethidium oxidative fluorescence microtopography; type: in vivo, mouse
Procedure: Oxidative fluorescent microtopography. Superoxide was detected in the layers of the vessel wall using fluorescent probe dihydroethidium as described previously. Fresh segments of upper descending thoracic aorta were frozen in OCT compound. […] Molecular Probes). Images were obtained on a confocal microscope (Bio-Rad MRC-1024 laser; filter settings: excitation filter 488 nm; emission filter 550 nm). 2-hydroxyethidium fluorescence was measured from high power (60× mag) images. Endothelium by quantifying fluorescence (intensity×area) on the luminal side of the internal elastic lamina, media between the internal and external elastic lamina, and adventitia outside the external elastic lamina. Quantification was performed using Image Pro Plus software (Media Cybernetics, Silver Springs, Md.). Medial Analysis was performed blind to the samples identity.

[7] = tested on: eNOS protein; conditions: experimental groups incl. apelin treated animals
Procedure: Immunoblotting. Lung homogenate (n≧3 per group) were homogenized on ice for 20 seconds in lysis buffer (50 mmol/L Tris, pH 7.5, 150 mmol/L NaCl, 0.1% SDS, 0.5% deoxycholate, 1% Nonidet P-40) containing protease inhibitors (Complete; Boehringer Mannheim) and 1 mmol/L phenylmethylsulfonyl fluoride. Protein lysates (8 μg) were resolved using SDS-PAGE and transferred to polyvinylidene difluoride membranes. Membranes were incubated with a 1:2000 dilution of mouse anti-eNOS monoclonal antibody (Cell Signaling, Location), followed by a 1:2500 dilution of rabbit anti-mouse horseradish peroxidase-conjugated secondary antibody (Promega). Protein bands were visualized by chemiluminescence.

[8] = tested on: Erk1/2 phosphorylation in RASM; conditions: AngII stimulated RASM

Q: Which Ejection fraction [1] does the source give for apelin here?
A: The Ejection fraction was 67.7±1.6%.

Q: What about the “heart rate (inverse of R-R interval of electrocardiogram)” value [1] of the same substance?
A: Its value is 559±19 beats per minute.

Q: What about the “left ventricular end diastolic area” value [1] of the same substance?
A: Its value is 0.104±0.005 cm2.

Q: What about the heart failure phenotype ([2]; apelin infused concomitantly with angiotensin II and isoproterenol) of the same substance?
A: The heart failure phenotype was “completely abrogated; also recorded: abrogated completely; also recorded: ameliorates the heart failure phenotype completely”.

Q: What about the “fractional shortening (post)” value ([2]; pyr-apelin-13 2 mg/kg/day with angiotensin II and isoproterenol, 7 day minipumps) of the same substance?
A: The value was 42.6±1.3%.

Q: What about the “reduction in aortic root atherosclerotic burden vs saline treated controls (trend)” value ([3]; apelin 2 mg/kg/day, 4 weeks) of the same substance?
A: Its value is 25%.

Q: What about the “reduction of total lesion burden” value ([3]; 4 weeks) of the same substance?
A: Its value is “mitigated”.

Q: And the “reduction of total lesion burden” value ([3]; 4 weeks, listed as Apelin)?
A: Its value is 75%.

Q: And the “progression of atherosclerosis in aortic root (FIG. 17)” value ([3]; osmotic minipump during high fat diet exposure)?
A: Its value is “do not alter”.

Q: And the “animals with aneurysm formation” value ([4]; AngII plus apelin treatment)?
A: Its value is 1/12.

Q: And the “incidence of AAA formation” value ([4]; apelin added to AngII infused mice)?
A: Its value is 8%.

Q: What about the “incidence of AAA formation within 4 weeks” value ([4]; single agent infusion) of the same substance?
A: Its value is “did not observe AAA formation”.

Q: And the “AngII stimulated increase in total chemiluminescence” value [5]?
A: The value was “abolished”.

Q: What about the “aortic superoxide production vs AngII alone” value ([6]; apelin added to AngII treated mice) of the same substance?
A: The value was “significantly reduced”.

Q: What about the “Total aortic fluorescence, lower than saline treated controls” value ([6]; apelin treated mice) of the same substance?
A: Its value is 3 fold.

Q: And the “eNOS protein levels in aortas” value [7]?
A: Its value is “no difference”.

Q: And the Erk1/2 phosphorylation [8]?
A: The Erk1/2 phosphorylation was “decreased”.
